Reference: the NIST ThermoML archive (doi:10.1021/je100554g)

What was measured:
[1] = xn = mol fraction of the nth substance listed; details: 101 kPa, Liquid, Pulse-echo method
[2] = 101.33 kPa, Liquid, Pulse-echo method

[Cl][Nd]([Cl])[Cl] [neodymium(III) chloride] + [Cl-].[Li+]
[1], x1 = 0.5
Details | speed of sound [m/s]
995 K | 1395
1033 K | 1374
1108 K | 1350
1133 K | 1331
1167 K | 1326

[Cl][Nd]([Cl])[Cl] [neodymium(III) chloride] + [Cl-].[Cs+]
[1]
Details | speed of sound [m/s]
913 K, x1 = 0.45 | 1110
968 K, x1 = 0.45 | 1080
998 K, x1 = 0.8 | 1205
1008 K, x1 = 0.45 | 1053
1043 K, x1 = 0.8 | 1172
1061 K, x1 = 0.45 | 1026
1083 K, x1 = 0.8 | 1148
1112 K, x1 = 0.45 | 998
1123 K, x1 = 0.8 | 1129
1138 K, x1 = 0.45 | 980
1143 K, x1 = 0.8 | 1115
1147 K, x1 = 0.25 | 969
1169 K, x1 = 0.25 | 961
1188 K, x1 = 0.25 | 953
1207 K, x1 = 0.25 | 949
1226 K, x1 = 0.25 | 941
1245 K, x1 = 0.25 | 934

[Cl][Nd]([Cl])[Cl] [neodymium(III) chloride]
[2]
Details | speed of sound [m/s]
1044 K | 1248
1045 K | 1259
1075 K | 1237
1083 K | 1227
1099 K | 1227
1148 K | 1223
1165 K | 1212
1184 K | 1188
1218 K | 1190

[Cl][Nd]([Cl])[Cl] [neodymium(III) chloride] + [Cl-].[K+]
[1]
Details | speed of sound [m/s]
1007 K, x1 = 0.75 | 1275
1037 K, x1 = 0.75 | 1259
1053 K, x1 = 0.37 | 1283
1058 K, x1 = 0.25 | 1370
1063 K, x1 = 0.5 | 1259
1067 K, x1 = 0.75 | 1240
1076 K, x1 = 0.25 | 1355
1080 K, x1 = 0.37 | 1260
1088 K, x1 = 0.5 | 1240
1096 K, x1 = 0.25 | 1340
1110 K, x1 = 0.37 | 1250
1110 K, x1 = 0.75 | 1225
1118 K, x1 = 0.25 | 1315
1124 K, x1 = 0.5 | 1230
1128 K, x1 = 0.37 | 1241
1139 K, x1 = 0.75 | 1210
1145 K, x1 = 0.37 | 1223
1146 K, x1 = 0.25 | 1300
1150 K, x1 = 0.5 | 1214
1163 K, x1 = 0.75 | 1197
1173 K, x1 = 0.37 | 1212
1176 K, x1 = 0.25 | 1256
1178 K, x1 = 0.37 | 1200
1185 K, x1 = 0.5 | 1190
1186 K, x1 = 0.25 | 1260
1203 K, x1 = 0.5 | 1186
1213 K, x1 = 0.25 | 1234

[Cl-].[Li+] [lithium chloride]
[2]
Details | speed of sound [m/s]
950 K | 1988
976 K | 1973
1003 K | 1945
1030 K | 1924
1062 K | 1894
1082 K | 1879
1110 K | 1858
1148 K | 1825
1181 K | 1791

[Cl][Nd]([Cl])[Cl] [neodymium(III) chloride] + [Cl-].[Na+]
[1]
Details | speed of sound [m/s]
1009 K, x1 = 0.365 | 1450
1048 K, x1 = 0.365 | 1418
1053 K, x1 = 0.2 | 1520
1063 K, x1 = 0.75 | 1290
1073 K, x1 = 0.2 | 1502
1073 K, x1 = 0.75 | 1285
1074 K, x1 = 0.365 | 1389
1090 K, x1 = 0.44 | 1350
1100 K, x1 = 0.365 | 1368
1103 K, x1 = 0.2 | 1465
1103 K, x1 = 0.44 | 1340
1103 K, x1 = 0.75 | 1270
1115 K, x1 = 0.44 | 1325
1123 K, x1 = 0.44 | 1330
1127 K, x1 = 0.2 | 1476
1128 K, x1 = 0.365 | 1354
1133 K, x1 = 0.44 | 1325
1133 K, x1 = 0.75 | 1256
1143 K, x1 = 0.2 | 1447
1143 K, x1 = 0.44 | 1322
1150 K, x1 = 0.44 | 1307
1154 K, x1 = 0.75 | 1250
1155 K, x1 = 0.365 | 1357
1173 K, x1 = 0.2 | 1420
1175 K, x1 = 0.365 | 1340
1176 K, x1 = 0.75 | 1240
